Experimental data from ChEMBL document CHEMBL1127158, “1,3-dithianes with acid functionalities: potent inhibitors and candidate affinity probes for the gaba-gated chloride channel” (Bioorg Med Chem Lett, 1993).

Molecular target: GABA-A receptor; anion channel
Assay: Inhibition of [3H]EBOB binding at GABA-gated chloride channel NCB site in bovine brain membranes
Type: cell membranes, Bos taurus

Row | IC50 | Structure (SMILES)
1 | 76 nM | CC(C)(C)C1CSC(c2ccc(C#CCO)cc2)SC1 (centres undefined)
2 | 830 nM | CC(C)(C)C1CSC(c2ccc(C#CCCC(=O)C=[N+]=[N-])cc2)SC1 (centres undefined)
3 | 410 nM | CC(C)(C)C1CSC(c2ccc(C#CCCCO)cc2)SC1 (centres undefined)
4 | 690 nM | CCC#Cc1ccc(C2SCC(C(C)(C)C)CS2)cc1 (centres undefined)
5 | 690 nM | CC(C)(C)C1CSC(c2ccc(C#CC(=O)C=[N+]=[N-])cc2)SC1 (centres undefined)
6 | 6700 nM | CCCC#Cc1ccc(C2SCC(C(C)(C)C)CS2)cc1 (centres undefined)
7 | 35 nM | CC#Cc1ccc(C2SCC(C(C)(C)C)CS2)cc1 (centres undefined)
8 | 10 nM | CC(C)(C)C1CSC(c2ccc(C#CCCP(=O)(O)O)cc2)SC1 (centres undefined)
9 | 23 nM | CC(C)(C)C1CSC(c2ccc(C#CCC(=O)O)cc2)SC1 (centres undefined)
10 | 460 nM | CCOC(=O)CC#Cc1ccc(C2SCC(C(C)(C)C)CS2)cc1 (centres undefined)
11 | 3100 nM | CC(O)C#Cc1ccc(C2SCC(C(C)(C)C)CS2)cc1 (centres undefined)
12 | 9 nM | COC(=O)C#Cc1ccc(C2SCC(C(C)(C)C)CS2)cc1 (centres undefined)
13 | 21 nM | C#Cc1ccc(C2SCC(C(C)(C)C)CS2)cc1 (centres undefined)
14 | 3000 nM | CCOP(=O)(CCC#Cc1ccc(C2SCC(C(C)(C)C)CS2)cc1)OCC (centres undefined)
15 | 17 nM | COC(=O)CCC#Cc1ccc(C2SCC(C(C)(C)C)CS2)cc1 (centres undefined)
16 | 5 nM | CC(C)(C)C1CSC(c2ccc(C#CCCC(=O)O)cc2)SC1 (centres undefined)
17 | > 10000 nM | CC(C)(O)C#Cc1ccc(C2SCC(C(C)(C)C)CS2)cc1 (centres undefined)
18 | 400 nM | CC(C)(C)C1CSC(c2ccc(C#CCCO)cc2)SC1 (centres undefined)
19 | 7 nM | CC(C)(C)C1CSC(c2ccc(C#CC(=O)O)cc2)SC1 (centres undefined)
